According to patent US12653459B2, “Systems, devices, and methods for blood pressure control” (Massachusetts Institute of Technology, priority 2022, dated 2026):

Assays:
[1] = two-compartment model of NI; mean ± spread; cited from earlier work
[2] = human, in vivo
Text: In two-compartment modeling, there is a central compartment and a peripheral compartment. […] The peripheral compartment contains tissues, including fat and bone, which uptake the drug at a slower rate than the central compartment.
where c1 in [mcg·L^−1] is the drug concentration in the central compartment, c2 in [mcg·L^−1] is the drug concentration in the peripheral compartment, kel in [min^−1] is the elimination rate constant, k12 in [min^−1] is the rate constant of distribution from the central compartment to the peripheral compartment, k21 in [min^−1] is the rate constant of distribution from the peripheral compartment to the central compartment, V1 in [L] is the volume of distribution of the central or first compartment, and u in [mcg·min^−1] represents the input infusion rate of a drug into the system. The constants defined in this model correspond to mass flow rate constants, which are traditionally estimated from empirical PK studies. As such, the formulation of Eq. 1.3 represents the dynamics of drug concentrations in the body in terms of mass flow rate constants. […] This model is time-invariant.
The volume in the central compartment, given in 0.32±0.19 in [L·kg^−1], is converted to
[formula] in [L] by multiplying by 85.41 in [kg], the average weight of the patient cohort. The following values are also derived:
[formula] […] It should be appreciated again these empirical values are mass flow rate constants.
From these parameters, k12, k21, and kel can be derived using the following,

k12, rate constant of distribution from the central compartment to the peripheral compartment [2]: ≈ 0.0183 min^−1
k21, rate constant of distribution from the peripheral compartment to the central compartment [2]: ≈ 0.0019 min^−1
kel, elimination rate constant [2]: ≈ 0.0223 min^−1
Structure (SMILES): COC(=O)C1=C(C)NC(C)=C(C(=O)OCCN(C)Cc2ccccc2)C1c1cccc([N+](=O)[O-])c1 (stereo not drawn) [NI, nicardipine]
V1, the volume of distribution in the central compartment [1]: 0.32 ± 0.19 L/kg
t1/2α, the distribution half-life [1]: 0.278 ± 0.18 h
t1/2β, the elimination half-life [1]: 11.49 ± 5.76 h
